System: SEM cells
Experiment: cell viability relative to DMSO control; higher = less cytotoxic
Details: 48 h
Method in brief: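 Library compounds in DMSO were pin-dosed in an 11-point threefold series (47 μM to 0.79 nM) onto leukemia cells in 1536-well plates (5 μl). Plates held 500 cells/well of NOMO1 or SEM or 1000 cells/well of P12-Ichikawa, each adapted for at least four passages in each medium. Luminescence was read with CellTiter-Glo One after 48 h at 37°C. Viability means the per-plate percentage relative to DMSO wells, using cell-free wells as background.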

[1] = HPLM + 10% dialyzed FBS, 0.000781 µM
[2] = HPLM + 10% dialyzed FBS, 0.00234 µM
[3] = HPLM + 10% dialyzed FBS, 0.00702 µM
[4] = HPLM + 10% dialyzed FBS, 0.0211 µM
[5] = HPLM + 10% dialyzed FBS, 0.0632 µM
[6] = HPLM + 10% dialyzed FBS, 0.19 µM
[7] = HPLM + 10% dialyzed FBS, 0.569 µM
[8] = HPLM + 10% dialyzed FBS, 1.71 µM
[9] = HPLM + 10% dialyzed FBS, 5.12 µM
[10] = HPLM + 10% dialyzed FBS, 15.4 µM
[11] = HPLM + 10% dialyzed FBS, 46.1 µM
[12] = RPMI 5 mM glucose + 10% FBS, 0.000781 µM
[13] = RPMI 5 mM glucose + 10% FBS, 0.00234 µM
[14] = RPMI 5 mM glucose + 10% FBS, 0.00702 µM
[15] = RPMI 5 mM glucose + 10% FBS, 0.0211 µM
[16] = RPMI 5 mM glucose + 10% FBS, 0.0632 µM
[17] = RPMI 5 mM glucose + 10% FBS, 0.19 µM
[18] = RPMI 5 mM glucose + 10% FBS, 0.569 µM
[19] = RPMI 5 mM glucose + 10% FBS, 1.71 µM
[20] = RPMI 5 mM glucose + 10% FBS, 5.12 µM
[21] = RPMI 5 mM glucose + 10% FBS, 15.4 µM
[22] = RPMI 5 mM glucose + 10% FBS, 46.1 µM
[23] = RPMI 5 mM glucose + 10% dialyzed FBS, 0.000781 µM
[24] = RPMI 5 mM glucose + 10% dialyzed FBS, 0.00234 µM
[25] = RPMI 5 mM glucose + 10% dialyzed FBS, 0.00702 µM
[26] = RPMI 5 mM glucose + 10% dialyzed FBS, 0.0211 µM
[27] = RPMI 5 mM glucose + 10% dialyzed FBS, 0.0632 µM
[28] = RPMI 5 mM glucose + 10% dialyzed FBS, 0.19 µM
[29] = RPMI 5 mM glucose + 10% dialyzed FBS, 0.569 µM
[30] = RPMI 5 mM glucose + 10% dialyzed FBS, 1.71 µM
[31] = RPMI 5 mM glucose + 10% dialyzed FBS, 5.12 µM
[32] = RPMI 5 mM glucose + 10% dialyzed FBS, 15.4 µM
[33] = RPMI 5 mM glucose + 10% dialyzed FBS, 46.1 µM

SMILES	cell viability [1] [%]	cell viability [2] [%]	cell viability [3] [%]	cell viability [4] [%]	cell viability [5] [%]	cell viability [6] [%]	cell viability [7] [%]	cell viability [8] [%]	cell viability [9] [%]	cell viability [10] [%]	cell viability [11] [%]	cell viability [12] [%]	cell viability [13] [%]	cell viability [14] [%]	cell viability [15] [%]	cell viability [16] [%]	cell viability [17] [%]	cell viability [18] [%]	cell viability [19] [%]	cell viability [20] [%]	cell viability [21] [%]	cell viability [22] [%]	cell viability [23] [%]	cell viability [24] [%]	cell viability [25] [%]	cell viability [26] [%]	cell viability [27] [%]	cell viability [28] [%]	cell viability [29] [%]	cell viability [30] [%]	cell viability [31] [%]	cell viability [32] [%]	cell viability [33] [%]
C=C1C(=O)OC(CCCCCCCC)C1C(=O)O (centres undefined)	97.2	108	106	118	108	105	111	107	90.6	125	113	97.5	99.9	111	106	102	119	108	113	14.1	125	113	111	98.2	111	126	120	128	125	117	84.3	121	121
CN(C)c1ccc2nc3ccc(N(C)C)cc3[s+]c2c1	89.6	51.3	99.7	104	104	117	114	102	97	18.6	5.42	82.6	44.9	89.8	97.6	91.1	111	79.7	85.7	87.2	73.7	6.3	86.7	38.2	80	89.2	92.7	91.2	90.1	91.1	78.7	46.8	6.19
CCOc1cc2ncc(C#N)c(Nc3ccc(F)c(Cl)c3)c2cc1NC(=O)/C=C/CN(C)C	88.3	118	120	123	118	73.1	71	55.6	37.4	20.1	4.15	75.1	110	108	114	116	58.9	52.1	40.2	24.5	11.5	3.17	79.9	115	131	120	126	66.2	67.3	52	29.9	11.7	3.53
CC1(CN2CCC(n3c(=O)[nH]c4ccccc43)CC2)OCc2ccccc2-n2cccc21 (centres undefined)	102	109	111	100	103	100	107	105	106	68.1	76.9	88.6	90.5	89	111	106	95	103	100	94.8	79.3	66.8	106	81.4	97.6	105	113	94	121	99.2	105	79.6	96.9
N#CC(c1ccnc(NCCc2cccnc2)n1)c1nc2ccccc2s1 (centres undefined)	110	122	118	117	126	136	134	131	144	137	115	105	105	144	125	133	118	124	132	140	132	120	–	–	–	–	–	–	–	–	–	–	–
OC[C@H]1O[C@H](C[C@@H]1O)N2\C=C(F)/C(=O)NC2=O	124	113	120	86.7	55.3	47.7	46.1	44.4	35.1	31.5	12.1	119	115	121	121	130	102	86.9	80.3	33.9	40.6	16.3	110	92.8	88.5	40.5	35.1	26.5	31.1	25.6	23.3	18.1	10.8
N#Cc1ccc(Oc2ccc3c(c2)COB3O)cc1	111	122	111	104	124	114	126	114	117	105	46.4	105	108	112	92.3	122	114	115	133	120	129	26.9	115	127	119	85	126	107	120	129	97.3	124	38.4
CC(=O)OC[C@H]1O[C@@H]([S-])[C@H](OC(C)=O)[C@@H](OC(C)=O)[C@@H]1OC(C)=O.CCP(CC)CC.[Au+]	73.4	72.8	68.7	82.1	73.6	97.6	84	83.1	15.9	6.62	6.21	91.1	75	87.3	84.8	77.8	105	101	88.5	6.02	6.28	5.83	78.4	85.1	78.6	80.1	77.6	87.2	84.5	69.4	7.37	6.42	5.84
COc1cccc2c1C(=O)c1c(O)c3c(c(O)c1C2=O)C[C@@](O)(C(=O)CO)C[C@@H]3O[C@H]1C[C@H](N)[C@H](O[C@H]2CCCCO2)[C@H](C)O1	101	106	111	103	102	129	102	81.8	13	109	72.2	79.7	84.3	89.5	91	65.2	96.1	66.6	44.8	7.83	95.8	59	92.9	110	119	123	117	115	95.8	77.3	18.3	126	105
CC(C)=CCC/C(C)=C/CC/C(C)=C/CC/C(C)=C/CC/C(C)=C/CC/C(C)=C/CC/C(C)=C/CC/C(C)=C/CC/C(C)=C/CO	94.8	109	103	99.7	91.2	98.9	115	77.8	100	85.5	119	109	105	121	96.9	104	111	114	60.7	107	60.5	102	99.4	99.6	95.6	102	105	100	108	61.6	78.4	63.4	89.3
N#C/C(=C\c1ccc(O)c(O)c1)C(=O)NCc1ccccc1	103	103	109	113	113	102	93.2	104	105	72.8	37.2	103	100	101	105	114	111	107	112	96.4	80.2	9.69	111	107	96.4	106	114	102	104	101	101	69	26.4
C[N]1C=C(C2=CC=CC=C12)\C3=C(\C(=O)NC3=O)C4=C[N](C5CCN(CC5)CC6=NC=CC=C6)C7=C4C=CC=C7	98.6	113	102	119	114	116	125	118	112	71.6	109	95.2	108	114	119	112	104	111	93.3	102	66.4	87.5	98.6	124	109	118	118	127	119	111	101	69.2	117
Cc1ccc(C(=O)Nc2cccc(C(F)(F)F)c2)cc1-c1ccc2nc(NCCN3CCOCC3)ncc2c1	115	118	118	122	107	109	114	101	51.3	31.6	8.49	105	113	112	125	116	114	110	103	41.6	15.7	7.56	109	101	94.5	97	124	92.8	117	97.3	35.8	15.9	6.55
N[C@H]2CN(CC12CC1)c3c(F)cc4c(c3Cl)[N@@](C=C(C4=O)C(=O)O)C5C[C@H]5F (some centres undefined)	90.7	93.2	89.9	88.9	92.2	86.4	84.3	84.7	90.5	60.6	84.6	107	126	112	119	103	136	73.2	113	103	74.6	95.4	71.1	83	92.4	83.8	92.2	92.5	75.6	98.6	91	50.1	78.7
O=C1CCC[C@@H]2[C@H]3CCCN4CCC[C@@H](CN12)[C@@H]34	44.2	65.4	55.2	65.6	72.7	73.2	72.3	78.1	67.5	71.3	73	73	87	75.5	82.4	92.8	92.2	93.2	84	63.1	80	72.6	60.4	79.1	62.4	89.7	73.9	82.6	77.6	72.3	64.2	68.5	68.3

— the supplement of paper PMC11451515
